From US11035851B2, “Method of identifying cosmetic agents for moisturizing skin” (The Procter & Gamble Company, priority 2016, dated 2021)

Tested on: epidermal gene expression (GeneTitan U219 probes)
Experiment: Genomic evaluation of LCM-derived epidermal samples before vs. after surfactant (SLS) challenge, leg controlled application test
Type: in vivo, human
Settings: for Significant Beyond Chance / Number of Probes (significantly different): summer, after 5 day 1% SLS treatment vs. baseline; for Number of Probes (significantly different): p<0.05, approximately 2465 probes expected by chance
Protocol: 25 ng of purified RNA is converted to biotin-labeled cRNA copies using the Affymetrix HT 3′ IVT Express kit (Cat. #901253) and protocol provided as executed on a Beckman Biomek® FX^p Laboratory Automation Workstation (Beckman Cat. #A31842), or equivalent. In brief, 500 ng of total RNA is reverse-transcribed into cDNA copies using oligo-dT primers and reverse transcriptase followed by second strand synthesis using DNA polymerase I. Following purification, the cDNA library is used as a template for generating biotin-labeled cRNA copies using T7 RNA polymerase and biotinylated dUTP. Biotinylated cRNA is fragmented by limited alkaline hydrolysis and then hybridized overnight to Affymetrix GeneTitan® U219 array plates using the Affymetrix GeneTitan® instrument and protocol provided. Following processing, chip images are converted to numeric data using the PLIER algorithm as executed in the Affymetrix GeneChip Expression Console.
A clinical study was conducted to conduct a genomic evaluation of subjects with inherently dry skin versus subjects with inherently normal moisturized skin in the winter season (phase 1) and summer season (phase 2. The clinical study design for each phase was a leg controlled application test (LCAT) protocol. The phase 2 portion of the test also included a determination of genomic differences between subjects that are treated with a drying agent (“surfactant challenged”).
Phase 2 clinical design: human subjects from phase 1 were recalled during the summer season (i.e., June-August) and maintained in their respective cohort groups. A cohort of 29 subjects was recalled for the inherently dry skin group, while a cohort of 12 subjects was recalled for the inherently normal moisturized skin group. All subjects were pre-conditioned with Olay® soap bar for 7 days (days −7 to −1) followed by a 2 day regression. Subjects were instructed to abstain from washing their legs with any products and from using any leave-on products on their legs during the pretreatment period. Dry Skin Grade measurements, full thickness biopsies, and other skin health measurements (e.g., TEWL) were taken on day 1. Subjects with a dry skin score of greater than 4.0 were excluded from biopsies. The full thickness biopsies were later separated into epidermal and dermal sections via LCM, and the epidermal section was used for genomic analysis.
On days 3-7 (5 consecutive days) subjects who have a Dryness Grade less than 3.0 on one or both legs continue on the study, all other subjects were excused from the study. The clinical staff conducted visual grading at a site adjacent to the biopsy site, followed by a surfactant challenge (i.e., treating the site with 1% sodium lauryl sulfate (“SLS”) solution and occluding the site with a Hill Top Chamber® brand occlusive patch test system for 30 minutes). Each day the dryness was visually graded prior to the SLS treatment. On day 8 (24 hrs. following Day 7), bio-instruments measures were taken, but biomarkers and biopsies were only taken if the surfactant challenged site has a Dryness Grade below 4.0.
Results: 237 LCM-derived epidermal samples were processed on GeneTitan® U219 chips as described above. Of these, 11 were statistical outliers that were eliminated from the data set. For purposes of statistical treatment, the left and right leg samples from each subject, at each phase of the study, were considered replicates. An ANOVA model was used to determine group differences.

[1] = P2 D5 Dry vs. P2 BL Dry: inherently dry skin
[2] = P2 D5 Healthy vs. P2 BL Healthy: inherently normal moisturized skin

CCCCCCCCCCCCOS(=O)(=O)[O-].[Na+] [SLS, sodium lauryl sulfate] was tested, and the “Significant Beyond Chance” value [1] was “Yes”, the “Number of Probes (significantly different)” value [1] was 10696 and the “Significant Beyond Chance” value [2] was “Yes”. The “Number of Probes (significantly different)” value [2] was 6110 and the “Difference in probe expression, paired (within-group) comparison before vs. after SLS treatment” value (within dry skin or normal/healthy skin groups, summer phase) was “significant differences”.
